The source of these data is PMC11743413 (Bioresources and Bioprocessing, 2025).

The test deals with T1, SerE (Corynebacterium glutamicum, UniProt Q8NSR3).
T1 construct: gene Cgl0605
To be noted: L-proline released from Pro-Gly in the cells; acid-ninhydrin assay.

T1 sequence (Q8NSR3 1-307): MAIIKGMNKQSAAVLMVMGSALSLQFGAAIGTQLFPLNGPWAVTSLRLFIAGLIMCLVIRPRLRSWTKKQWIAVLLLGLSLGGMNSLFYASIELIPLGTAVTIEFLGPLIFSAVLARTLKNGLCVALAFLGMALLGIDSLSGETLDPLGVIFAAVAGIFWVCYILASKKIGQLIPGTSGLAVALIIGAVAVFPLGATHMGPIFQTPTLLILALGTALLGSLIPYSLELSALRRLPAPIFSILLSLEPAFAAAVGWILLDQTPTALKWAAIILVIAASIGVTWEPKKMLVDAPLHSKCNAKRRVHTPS

As to `O=C(O)[C@@H]1CCCN1` [L-proline], the “amino acid export assay after Pro-Gly dipeptide addition; serE deletion versus o” value was “SerE is indeed as an L-proline exporter”.
